Source: US20260028365A1 (BIOGEN MA INC., priority 2022, published 2026)
Counter-ions that a name gives are not always drawn.

Columns and labels:
JH2 domain of human Tyk2 = JH2 domain of human Tyk2 (Homo sapiens (Human), UniProt P29597); assay: JH2 Biochemical Assay (TR-FRET probe displacement); format: binding; conditions: TR-FRET probe displacement, JH2 domain of human Tyk2
Tyk2 = Tyk2 (Homo sapiens (Human), UniProt P29597); assay: pSTAT4 Cell Assay (MSD, NK92 cells); format: cell-based; conditions: MSD
Tyk2, sequence (P29597 whole entry): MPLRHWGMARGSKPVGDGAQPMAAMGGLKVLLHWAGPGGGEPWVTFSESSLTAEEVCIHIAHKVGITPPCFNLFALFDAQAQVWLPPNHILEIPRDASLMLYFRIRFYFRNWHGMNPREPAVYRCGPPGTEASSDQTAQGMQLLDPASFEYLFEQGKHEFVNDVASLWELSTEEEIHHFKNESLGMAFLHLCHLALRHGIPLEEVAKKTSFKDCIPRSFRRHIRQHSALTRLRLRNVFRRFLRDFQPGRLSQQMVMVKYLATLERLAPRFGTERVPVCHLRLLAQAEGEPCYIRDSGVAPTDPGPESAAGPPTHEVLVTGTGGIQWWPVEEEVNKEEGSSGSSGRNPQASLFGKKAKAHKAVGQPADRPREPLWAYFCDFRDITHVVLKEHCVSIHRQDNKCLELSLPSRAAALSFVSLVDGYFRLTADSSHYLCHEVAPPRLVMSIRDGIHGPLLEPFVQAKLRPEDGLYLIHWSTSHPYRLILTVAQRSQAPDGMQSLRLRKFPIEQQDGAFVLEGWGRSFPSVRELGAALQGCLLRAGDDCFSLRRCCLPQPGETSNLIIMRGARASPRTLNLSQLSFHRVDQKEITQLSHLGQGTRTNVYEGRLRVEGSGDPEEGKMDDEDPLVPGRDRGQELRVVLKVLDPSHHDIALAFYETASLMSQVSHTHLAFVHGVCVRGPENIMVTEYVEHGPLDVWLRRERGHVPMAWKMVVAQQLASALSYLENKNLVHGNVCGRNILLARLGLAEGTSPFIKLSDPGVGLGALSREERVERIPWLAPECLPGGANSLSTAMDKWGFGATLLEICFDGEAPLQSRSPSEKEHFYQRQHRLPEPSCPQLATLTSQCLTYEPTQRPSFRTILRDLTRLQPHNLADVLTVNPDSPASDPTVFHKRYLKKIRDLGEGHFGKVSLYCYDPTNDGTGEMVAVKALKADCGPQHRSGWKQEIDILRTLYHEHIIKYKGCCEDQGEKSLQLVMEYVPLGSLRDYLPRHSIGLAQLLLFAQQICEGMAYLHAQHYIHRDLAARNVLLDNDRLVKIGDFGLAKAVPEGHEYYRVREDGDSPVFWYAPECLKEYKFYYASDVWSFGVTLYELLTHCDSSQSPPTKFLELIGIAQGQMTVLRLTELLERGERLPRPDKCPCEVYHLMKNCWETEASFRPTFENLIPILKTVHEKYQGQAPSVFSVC

JH2 domain of human Tyk2, sequence (P29597 575-876): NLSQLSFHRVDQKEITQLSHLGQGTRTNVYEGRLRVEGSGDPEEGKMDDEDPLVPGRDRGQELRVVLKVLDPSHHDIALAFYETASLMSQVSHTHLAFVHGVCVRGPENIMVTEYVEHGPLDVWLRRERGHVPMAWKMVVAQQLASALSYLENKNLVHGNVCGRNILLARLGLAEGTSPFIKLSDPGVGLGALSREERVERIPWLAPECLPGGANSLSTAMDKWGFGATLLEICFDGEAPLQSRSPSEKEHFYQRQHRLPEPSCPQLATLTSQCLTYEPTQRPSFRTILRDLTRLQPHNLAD

SMILES	IC50 (JH2 domain of human Tyk2)	IC50 (Tyk2)
CCc1cc(Nc2cc(NC(C)=O)ncc2-c2ccn(C)n2)nc(C(C)(F)F)n1 [Example 204, N-(4-((2-(1,1-difluoroethyl)-6-ethylpyrimidin-4-yl)amino)-5-(1-methyl-1H-pyrazol-3-yl)pyridin-2-yl)acetamide]	≤ 10 nM	≤ 10 nM
CC(=O)Nc1cc(Nc2cc(C3CC3)nc(C(C)(F)F)n2)c(-c2ccn(C)n2)cn1 [Example 206, N-(4-((6-cyclopropyl-2-(1,1-difluoroethyl)pyrimidin-4-yl)amino)-5-(1-methyl-1H-pyrazol-3-yl)pyridin-2-yl)acetamide]	≤ 10 nM	≤ 10 nM
CC(=O)Nc1cc(Nc2cccc(C3CCOC3)n2)c(-c2ccn(C)n2)cn1 (centres unmarked) [Example 208, N-(5-(1-methyl-1H-pyrazol-3-yl)-4-((6-(tetrahydrofuran-3-yl)pyridin-2-yl)amino)pyridin-2-yl)acetamide]	≤ 10 nM	10 to 100 nM
CO[C@H]1C[C@@H](Oc2cc(Nc3cc(NC(C)=O)ncc3-c3ccn(C)n3)nc(C(C)(F)F)c2)C1 [Example 211, N-(4-((6-(1,1-difluoroethyl)-4-((1s,3s)-3-methoxycyclobutoxy)pyridin-2-yl)amino)-5-(1-methyl-1H-pyrazol-3-yl)pyridin-2-yl)acetamide]	≤ 10 nM	≤ 10 nM
[2H]C([2H])([2H])C(=O)Nc1cc(Nc2cc(C)nc(C(C)(F)F)n2)c(-c2ccc(OC)nn2)cn1 [Example 213, N-(4-((2-(1,1-difluoroethyl)-6-methylpyrimidin-4-yl)amino)-5-(6-methoxypyridazin-3-yl)pyridin-2-yl)acetamide-2,2,2-d3]	≤ 10 nM	≤ 10 nM
CC(=O)Nc1cc(Nc2cccc(C(C)(C)F)n2)c(-c2ncc(F)cn2)cn1 [Example 215, N-(4-((6-(2-fluoropropan-2-yl)pyridin-2-yl)amino)-5-(5-fluoropyrimidin-2-yl)pyridin-2-yl)acetamide]	≤ 10 nM	10 to 100 nM
CC(=O)Nc1cc(Nc2ccnc(C(C)(C)F)c2)c(-c2ncc(F)cn2)cn1 [Example 216, N-(4-((2-(2-fluoropropan-2-yl)pyridin-4-yl)amino)-5-(5-fluoropyrimidin-2-yl)pyridin-2-yl)acetamide]	10 to 100 nM	100 to 1000 nM
COc1cc(-c2cnc(NC(C)=O)cc2Nc2ccnc(C(C)(F)F)c2)ncn1 [Example 217, N-(4-((2-(1,1-difluoroethyl)pyridin-4-yl)amino)-5-(6-methoxypyrimidin-4-yl)pyridin-2-yl)acetamide]	10 to 100 nM	≥ 1000 nM
CC(=O)Nc1cc(Nc2cc(C)nc(C(C)(F)F)n2)c(-c2ccc(C)nn2)cn1 [Example 219, N-(4-((2-(1,1-difluoroethyl)-6-methylpyrimidin-4-yl)amino)-5-(6-methylpyridazin-3-yl)pyridin-2-yl)acetamide]	≤ 10 nM	≤ 10 nM
CCc1cc(Nc2cc(NC(C)=O)ncc2-c2ccc(=O)[nH]n2)nc(C(C)(F)F)n1 [Example 221, N-(4-((2-(1,1-difluoroethyl)-6-ethylpyrimidin-4-yl)amino)-5-(6-oxo-1,6-dihydropyridazin-3-yl)pyridin-2-yl)acetamide]	10 to 100 nM	≥ 1000 nM
CC(=O)Nc1cc(Nc2cc(C)nc(C(C)(F)F)n2)c(-c2cc3n(n2)CCN(C(C)=O)C3)cn1 [Example 222, N-(5-(5-acetyl-4,5,6,7-tetrahydropyrazolo[1,5-a]pyrazin-2-yl)-4-((2-(1,1-difluoroethyl)-6-methylpyrimidin-4-yl)amino)pyridin-2-yl)acetamide trifluoroacetate]	≤ 10 nM	≤ 10 nM
CC(=O)Nc1cc(Nc2cc(C)nc(C(C)(F)F)n2)c(-c2cnc(N(C)C)cn2)cn1 [Example 225, N-(4-((2-(1,1-difluoroethyl)-6-methylpyrimidin-4-yl)amino)-5-(5-(dimethylamino)pyrazin-2-yl)pyridin-2-yl)acetamide]	≤ 10 nM	10 to 100 nM
CC(=O)Nc1cc(Nc2cc(C)nc(C(C)(F)F)n2)c(-c2ccn(CC(C)(C)O)n2)cn1 [Example 228, N-(4-((2-(1,1-difluoroethyl)-6-methylpyrimidin-4-yl)amino)-5-(1-(2-hydroxy-2-methylpropyl)-1H-pyrazol-3-yl)pyridin-2-yl)acetamide]	≤ 10 nM	≤ 10 nM
CCOCCn1ccc(-c2cnc(NC(C)=O)cc2Nc2cc(C)nc(C(C)(F)F)n2)n1 [Example 229, N-(4-((2-(1,1-difluoroethyl)-6-methylpyrimidin-4-yl)amino)-5-(1-(2-ethoxyethyl)-1H-pyrazol-3-yl)pyridin-2-yl)acetamide]	≤ 10 nM	≤ 10 nM
COC(C)(C)Cn1ccc(-c2cnc(NC(C)=O)cc2Nc2cc(C)nc(C(C)(F)F)n2)n1 [Example 230, N-(4-((2-(1,1-difluoroethyl)-6-methylpyrimidin-4-yl)amino)-5-(1-(2-methoxy-2-methylpropyl)-1H-pyrazol-3-yl)pyridin-2-yl)acetamide]	≤ 10 nM	≤ 10 nM
COCc1cnc(-c2cnc(NC(C)=O)cc2Nc2cc(C)nc(C(C)(F)F)n2)s1 [Example 231, N-(4-((2-(1,1-difluoroethyl)-6-methylpyrimidin-4-yl)amino)-5-(5-(methoxymethyl)thiazol-2-yl)pyridin-2-yl)acetamide]	≤ 10 nM	≤ 10 nM
COCc1ncc(-c2cnc(NC(C)=O)cc2Nc2cc(C)nc(C(C)(F)F)n2)s1 [Example 232, N-(4-((2-(1,1-difluoroethyl)-6-methylpyrimidin-4-yl)amino)-5-(2-(methoxymethyl)thiazol-5-yl)pyridin-2-yl)acetamide]	≤ 10 nM	≤ 10 nM
COCc1csc(-c2cnc(NC(C)=O)cc2Nc2cc(C)nc(C(C)(F)F)n2)n1 [Example 233, N-(4-((2-(1,1-difluoroethyl)-6-methylpyrimidin-4-yl)amino)-5-(4-(methoxymethyl)thiazol-2-yl)pyridin-2-yl)acetamide]	≤ 10 nM	≤ 10 nM
CC(=O)Nc1cc(Nc2cc(C)nc(C(C)(F)F)n2)c(-c2csc(N3CCOCC3)n2)cn1 [Example 234, N-(4-((2-(1,1-difluoroethyl)-6-methylpyrimidin-4-yl)amino)-5-(2-morpholinothiazol-4-yl)pyridin-2-yl)acetamide]	≤ 10 nM	≤ 10 nM
CC(=O)Nc1cc(Nc2cc(C)nc(C(C)(F)F)n2)c(-c2ncns2)cn1 [Example 235, N-(4-((2-(1,1-difluoroethyl)-6-methylpyrimidin-4-yl)amino)-5-(1,2,4-thiadiazol-5-yl)pyridin-2-yl)acetamide]	≤ 10 nM	≤ 10 nM
CC(=O)Nc1cc(Nc2cc(C)nc(C(C)(F)F)n2)c(-c2nnc(N(C)C)s2)cn1 [Example 236, N-(4-((2-(1,1-difluoroethyl)-6-methylpyrimidin-4-yl)amino)-5-(5-(dimethylamino)-1,3,4-thiadiazol-2-yl)pyridin-2-yl)acetamide]	≤ 10 nM	≤ 10 nM
CC(=O)Nc1cc(Nc2cc(C)nc(C(C)(F)F)n2)c(-c2cn3c(n2)CN(C)CC3)cn1 [Example 239, N-(4-((2-(1,1-difluoroethyl)-6-methylpyrimidin-4-yl)amino)-5-(7-methyl-5,6,7,8-tetrahydroimidazo[1,2-a]pyrazin-2-yl)pyridin-2-yl)acetamide]	≤ 10 nM	≤ 10 nM
